Test results: patent US11911483B2, “Modified self-immolating moieties for use in prodrugs and conjugates and methods of using and making” (BRISTOL-MYERS SQUIBB COMPANY, priority 2018, dated 2024)

Columns and labels:
[1] = Blood serum stability in human serum; assay type: in vitro ADME; settings: 37° C.
Protocol: (§1) The samples were incubated at 37° C. for 0, 1, 2, 4, and 24 hours. After each of the time points, an aliquot of 20 μl was taken from the samples and quenched with 60 μl of 75:25:0.1 MeOH:acetonitrile:formic acid. After quenching, all samples were held at −20° C. for 1 hour and further centrifuged at 14000 rpm for 15 mins. The supernatant was transferred to a fresh vial and stored at −20° C. until analysis. Samples were analyzed using LC-MS/MS on Agilent 6530 Q-TOF mass spectrometer connected to an Agilent 1290 UPLC. 3 μL of samples were injected onto a Waters BEH C18 Column (2.1×50 mm, 1.7 μm) maintained at 60° C. […] The total run time is 9.5 min.

Cathepsin B = Cathepsin B (Homo sapiens, UniProt P07858); experiment: Cathepsin B cleavage of linkers; assay type: biochemical; settings: Cathepsin B buffer pH 5.5, 37° C.
Protocol: The following procedure was used for testing the cathepsin B cleavage of linkers.
7.5 μL of test compound (0.5 mM in DMSO) was transferred to individual tube containing 135 μl of Cathepsin B buffer (25 mM Sodium Acetate, 1 mM EDTA, 1 mM DTT, pH 5.5) and the digestion was started by the addition of 7.5 μl of the diluted Cathepsin B enzyme (Activated, 1.45 μM, 0.1 units). The samples were incubated at 37° C. for 24 h. After 24 h, a 20 μL aliquot was taken and quenched with 80 μL of 75:25:0.1 MeOH:acetonitrile:formic acid. Negative control was also included, without the addition of Cathepsin B. A control compound (structure below) was digested similarly and included as positive control. After quenching, all samples were held at −20° C. for 1 h and further centrifuged at 14,000 rpm for 5 min. The supernatant was transferred to a fresh tube and put in an UPLC autosampler for analysis, per the procedure of the preceding example.
In the above structure, “Tub” denotes a tubulysin analog (Cheng et al., U.S. Pat. No. 8,394,922 B2 (2013). The valine-citrulline (Val-Cit) dipeptide is a known substrate for cathepsin B.

[2] = Blood serum stability in mouse serum; assay type: in vitro ADME
Protocol: as §1

SMILES: CCCCOc1nc(N)c2nc(O)n(Cc3ccc(CN(CCCC)C(=O)OCc4ccc(NC(=O)[C@H](CCCNC(N)=O)NC(=O)[C@@H](NC(=O)[C@H](CCC(=O)O)NC(=O)CCCCCN5C(=O)C=CC5=O)C(C)C)cc4)cc3)c2n1 [Compound B]
- Stability in Human Serum (% cleaved after 24 hours) [1]: 0 % cleaved
- Cathepsin B Cleavage (% cleaved after 24 hours) (Cathepsin B): 100 % cleaved
- Stability in Mouse Serum (% cleaved after 24 hours) ([2]; mouse serum, 37° C., 24 hours): 50 % cleaved
- Stability in mouse serum (in words) ([2]; text summary of Table C): unstable in mouse serum
